Measured values taken from US12478607B2, “Compounds useful for inhibiting BFL1 and their use in therapy” (CHILDREN'S HOSPITAL MEDICAL CENTER, priority 2019, dated 2025).
pEC50, pIC50: −log10 of the molar value.

Experiments:
BCL2A1 (A1) [1] = target: T1, BCL2A1 (A1) (Mus musculus (Mouse), UniProt Q07440); test: dose-response fluorescence polarization (FP) assay, displacement of FITC-labeled mNOXA peptide; type: binding, murine; conditions: 3 μM A1, 375 nM FITC-labeled mNOXA, overnight 20° C., triplicate
T1 sequence (Q07440 whole entry): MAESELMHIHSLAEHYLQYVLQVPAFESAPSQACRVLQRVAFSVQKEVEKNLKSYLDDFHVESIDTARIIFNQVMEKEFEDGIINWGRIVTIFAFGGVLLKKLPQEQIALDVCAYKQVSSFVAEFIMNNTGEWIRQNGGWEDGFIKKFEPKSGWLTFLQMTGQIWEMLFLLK
Procedure: (§1) These assays were carried out using fluorescently labeled NOXA peptide which binds within the BH3-binding groove. The FP assay measures the tumbling rate of the labeled NOXA peptide as a proxy for inhibition of BH3 binding using a competition-based approach. When NOXA is bound to BCL2A1, its rate of tumbling is low (and FP is high), whereas an effective inhibitor compound will displace NOXA, causing a fast rate of tumbling (and low FP value). The initial single high dose assay was performed with each compound using […] with BCL2A1 and FITC-NOXA, to observe the relative inhibition of the BCL2A1-NOXA interaction. Small molecules that deviated by three or more standard deviations from the control mean towards inhibition of binding were selected for further analysis. These compounds and any that were three standard deviations or more above the thermal shift controls in the DSF assays were tested in an FP dose-response experiment. […] The average thermal shift (Tm shift) in the DSF assay, along with the percentage of bound Noxa peptide from the single high dose FP assay are given below in Table 2 for each of these compounds. The first two compounds in Table 2 are reference compounds.
(§2) Compounds were additionally tested for specificity of binding by displacement of FITC-labeled mouse NOXA (mNoxa; Peptide 2.0) peptide via fluorescence polarization assay (FP). FP assays were performed in two steps: single-point high-concentration compounds and dose response of fluorescence polarization hits. A1 was added at 3 μM to 100 μM of each compound in 20 mM Tris pH 7, 500 mM NaCl, 0.005% Tween-20 buffer. After addition of 375 nM labeled mNOXA, 96-well plates were incubated overnight at 20° C. in the dark to achieve equilibrium before fluorescence polarization was measured with a Biotek Synergy H2. Autofluorescent compounds and fluorescent quenching compounds were corrected via ratiometric correction as described by Shapiro et al., 2009.
Dose response curves were measured by adding 3 μM A1 to a serial two-fold dilution series of each compound ranging from 400 μM to 781 nM in 20 mM Tris pH 7, 500 mM NaCl, 0.005% Tween-20 buffer. Some compounds were further tested to assess the accuracy of these two-fold dilutions with serial 1.33-fold dilutions. A1, compounds, buffer and lastly, 375 nM FITC-labeled mNOXA were added to each well and incubated in the dark at 20° C. overnight to achieve equilibrium, followed by measurement of polarization. All dose responses were performed in triplicate.

BCL2A1 (A1) [2] = target: T1, BCL2A1 (A1); test: single high-dose fluorescence polarization (FP) assay, BCL2A1-NOXA interaction; type: binding, murine; conditions: 100 μM compound, 3 μM A1, 375 nM labeled mNOXA
Procedure: as §1, §2

[3] = tested on: T cells from Bax/Bak-deficient mice (Bax/Bak KO); test: in vitro apoptosis assay, Bax/Bak-deficient murine T cells; type: cell-based, mouse
Excerpt: (§3) We further tested the biological activity of the compounds using an in vitro apoptosis assay. Primary murine splenocyte cells were used as the model system. Single cell suspensions were generated from the spleens of either wild-type (WT) mice or mice having a genetic “knock-out” of the Bax and Bak genes, resulting in Bax/Bak deficient mice (Bax/Bak KO) which lack the core machinery of the intrinsic apoptotic pathway. Mice deficient in Bax/Bak are unable to undergo intrinsic apoptosis due to the lack of the pro-apoptotic Bax and Bak proteins in the pathway.
(§4) Purified cells were cultured on anti-CD3 coated (3 μg/mL, coated overnight, Biolegend, San Diego, CA) six-well plates in the presence of soluble anti-CD28 (2 μg/mL, Bio X Cell, West Lebanon, NH) and IL-2 (10 ng/mL, R&D Systems, Inc., Minneapolis, MN) in RPMI media (Life Technologies, Carlsbad, CA) for 24 hours at 37° C. Cells were then washed and cultured again in IL-2 (10 ng/mL) for 24 hours at 37° C. Cells were harvested and cultured for 24 hours on anti-CD3 coated 96-well plates at 500,000 cells per well with 2 μg/mL soluble anti-CD28, 10 ng/mL IL-2, 0.125 μg purified anti-mouse FasL (Biolegend, San Diego, CA), and varying concentrations of inhibitor compounds. Cells were then harvested and live and dead cells enumerated by trypan blue staining using the TC20 automated cell counter (Bio-Rad Laboratories, Des Plaines, IL).

[4] = tested on: wild-type activated primary murine T cells (splenocytes); test: in vitro apoptosis assay, wild-type activated primary murine T cells; type: cell-based; conditions: Mus musculus, T-cell, 24 hours, trypan blue live/dead count
Excerpt: as §3, §4

BCL2A1 (purified A1) = BCL2A1 (purified A1) (Mus musculus (Mouse), UniProt Q07440); test: differential scanning fluorimetry (DSF) thermal shift assay; type: binding, murine; conditions: 100 μM compound, 4.4 μM A1, triplicate; for ΔTm at 100 µM: read-out: Average Tm Shift
BCL2A1 (purified A1), sequence (Q07440 whole entry): as above
Excerpt: Thermal shift assays and fluorescence polarization competition assays were used to identify compounds that bind to BCL2A1/BFL1. Compounds were first tested for binding to BCL2A1 using differential scanning fluorimetry (DSF) thermal shift assays. DSF measures the midpoint temperature (Tm) for thermal denaturation of proteins; typically ligand binding stabilizes the protein fold, resulting in an increased Tm. During DSF experiments, all compounds that contributed to an increase in Tm that corresponded to at least three standard deviations from the mean were included in further assays.
100 μM of each compound was applied to purified A1 at 4.4 μM in triplicate. Sypro Orange dye was added at a final dilution of 1:1000 to protein- and compound-containing wells. An Applied Biosystems StepOnePlus was used to perform Differential Scanning Fluorimetry (DSF) by elevating the temperature from 20° C. to 99° C. and measuring fluorescence at every half degree C. Melting temperature was recorded as the maximum of the first derivative, indicating half of the protein population was unfolded.

Row | pIC50 (BCL2A1 (A1) [1]) | % Bound Noxa (from high-dose FP) (BCL2A1 (A1) [2]) | ΔTm at 100 µM (BCL2A1 (purified A1)) | Average Tm Shift (BCL2A1 (purified A1)) | Structure (SMILES) | EC50 fold higher in Bax/Bak-deficient cells than in wild-type cells ([3]; Bax/Bak-deficient versus wild-type T cells) | pEC50 ([3]; Mus musculus, T-cell, Bax/Bak-deficient T cells, 24 hours, trypan blue live/dead count, read-out: EC50 of cell death) | pEC50 [4]
1 | 3.99 | 51.13% | -1.43 °C | – | CCN(CCNc1ccc(C)c2sc3ccccc3c(=O)c12)CC(C)(C)O [Compound 1.003] | – | – | –
2 | 3.52 | – | -0.6 °C | – | Cc1ccc(NCCNCC(O)CO)c2c(=O)c3ccccc3sc12 (stereo not shown) [Compound 1.004] | – | – | –
3 | 3.48 | – | -0.85 °C | – | Cc1ccc(NCCNCC(C)(C)O)c2c(=O)c3ccccc3sc12 [Compound 1.005] | – | – | –
4 | 4.31 | 70.39% | 19.2 °C | – | O=C(COc1c(Cl)cc(Cl)c2ccccc12)NC1c2ccccc2Oc2ccccc21 [Compound 1.006] | – | – | –
5 | – | – | – | 1.92 °C | Cc1cc(N=Nc2ccc(N=Nc3c(O)c(S(=O)(=O)O)cc4cc(S(=O)(=O)O)ccc34)cc2C)ccc1N=Nc1ccc2cc(S(=O)(=O)O)cc(S(=O)(=O)O)c2c1 [REF 1, reference compound] | – | – | –
6 | – | 1.2% | – | −30.75 °C | Cc1ccc(NC(=O)c2cc3ccccc3c(N=Nc3cc(S(=O)(=O)O)ccc3O)c2O)c(C)c1 [REF 2, reference compound] | – | – | –

Row | Structure (SMILES) | pIC50 (BCL2A1 (A1) [1]) | % Bound Noxa (from high-dose FP) (BCL2A1 (A1) [2]) | ΔTm at 100 µM (BCL2A1 (purified A1)) | Average Tm Shift (BCL2A1 (purified A1)) | EC50 fold higher in Bax/Bak-deficient cells than in wild-type cells ([3]; Bax/Bak-deficient versus wild-type T cells) | pEC50 ([3]; Mus musculus, T-cell, Bax/Bak-deficient T cells, 24 hours, trypan blue live/dead count, read-out: EC50 of cell death) | pEC50 [4]
7 | CCN(CC)CC(O)CNc1ccc(C)c2sc3ccccc3c(=O)c12 (stereo not shown) [Compound 1.001] | 4.31 | 41.48% | 0.49 °C | – | about 10 fold | 4.52 to 4.70 | ~5.52
8 | CCN(CC)CCNc1ccc(C)c2sc3ccccc3c(=O)c12 [Compound 1.002] | 4.15 | 4.5% | 38.8 °C | – | – | – | –
